Reference: US20080027117A1, “Antifungal Azole Derivatives Having a Fluorovinyl Moiety and Process for the Preparation Thereof” (KOREA RESERACH INSTIITUTE OF CHEMICAL TECHNOLOGY, priority 2003, published 2008)
≈ marks a conversion by molar mass, not a printed value. Like-named read-outs stand apart in the source and are kept apart here.

Legend:
CYP 3A4 = CYP 3A4 (Homo sapiens, UniProt P08684); assay: Hepatic toxicity: Midazolam 1′-hydroxylase in human hepatic microsomes; conditions: read-out: IC50 Midazolam 1′-hydroxylase CYP 3A4; human hepatic microsomes 0.5 mg/ml, 37° C., 20 min, LC-MS
Description: (§1) After incubating at 37° C. for 20 min, 200 μl of each resulting solution was mixed with 100 μl of acetonitrile, and analyzed with LC-MS (LC column: Luna2 C8, 2×100 mm, flow velocity: 0.2 ml/min, MS system: Quattro LC (micromass)) using a 5% MeOH aqueous solution containing 0.1% formic acid as an eluent.

CYP 2D6 = CYP 2D6 (Homo sapiens, UniProt P10635); assay: Hepatic toxicity: Bufuralol 1′-hydroxylase in human hepatic microsomes
Description: as §1

CYP 2C8 = target: T1, CYP 2C8 (Homo sapiens, UniProt P10632); assay: Hepatic toxicity: Paclitaxel 6 α-hydroxylase in human hepatic microsomes
T1 sequence (P10632 1-490): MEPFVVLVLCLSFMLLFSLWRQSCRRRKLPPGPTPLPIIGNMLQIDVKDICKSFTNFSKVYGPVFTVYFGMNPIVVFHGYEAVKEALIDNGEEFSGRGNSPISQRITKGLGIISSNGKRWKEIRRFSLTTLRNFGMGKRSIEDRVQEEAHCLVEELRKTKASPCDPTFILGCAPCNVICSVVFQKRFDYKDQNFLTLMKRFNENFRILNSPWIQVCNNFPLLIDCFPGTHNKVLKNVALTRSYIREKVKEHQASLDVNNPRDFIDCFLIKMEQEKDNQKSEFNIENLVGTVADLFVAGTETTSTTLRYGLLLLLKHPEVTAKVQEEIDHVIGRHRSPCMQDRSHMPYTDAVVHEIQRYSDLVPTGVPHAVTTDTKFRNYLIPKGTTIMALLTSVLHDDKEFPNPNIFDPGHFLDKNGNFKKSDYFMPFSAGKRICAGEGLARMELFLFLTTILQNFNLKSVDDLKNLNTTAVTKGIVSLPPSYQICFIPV
Description: as §1

CYP 2C19 = CYP 2C19 (Homo sapiens, UniProt P33261); assay: Hepatic toxicity: Mephenytoin 4-hydroxylase in human hepatic microsomes
Description: as §1

CYP 1A2 = target: T2, CYP 1A2 (Homo sapiens, UniProt P05177); assay: Hepatic toxicity: Phenacetin O-deethylase in human hepatic microsomes
T2 sequence (P05177 1-516): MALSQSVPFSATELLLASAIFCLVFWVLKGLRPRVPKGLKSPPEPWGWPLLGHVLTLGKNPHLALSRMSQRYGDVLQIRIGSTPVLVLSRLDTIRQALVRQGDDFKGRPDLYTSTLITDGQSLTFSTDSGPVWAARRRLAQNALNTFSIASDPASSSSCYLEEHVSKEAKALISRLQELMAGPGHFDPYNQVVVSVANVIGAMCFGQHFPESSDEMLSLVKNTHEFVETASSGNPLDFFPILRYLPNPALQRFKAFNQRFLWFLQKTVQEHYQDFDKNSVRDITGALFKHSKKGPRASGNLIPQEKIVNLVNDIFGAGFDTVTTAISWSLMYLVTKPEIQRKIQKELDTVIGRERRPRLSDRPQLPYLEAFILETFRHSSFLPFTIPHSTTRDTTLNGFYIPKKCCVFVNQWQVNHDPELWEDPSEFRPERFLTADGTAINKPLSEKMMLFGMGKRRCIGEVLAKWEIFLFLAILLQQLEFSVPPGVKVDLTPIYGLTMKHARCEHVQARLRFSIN
Description: as §1

CYP 2C9 = CYP 2C9 (Homo sapiens, UniProt P11712); assay: Hepatic toxicity: Diclofenac 4′-hydroxylase in human hepatic microsomes
Description: as §1

CYP 2A6 = target: T3, CYP 2A6 (Homo sapiens, UniProt P11509); assay: Hepatic toxicity: Coumarin 7-hydroxylase in human hepatic microsomes
T3 sequence (P11509 1-494): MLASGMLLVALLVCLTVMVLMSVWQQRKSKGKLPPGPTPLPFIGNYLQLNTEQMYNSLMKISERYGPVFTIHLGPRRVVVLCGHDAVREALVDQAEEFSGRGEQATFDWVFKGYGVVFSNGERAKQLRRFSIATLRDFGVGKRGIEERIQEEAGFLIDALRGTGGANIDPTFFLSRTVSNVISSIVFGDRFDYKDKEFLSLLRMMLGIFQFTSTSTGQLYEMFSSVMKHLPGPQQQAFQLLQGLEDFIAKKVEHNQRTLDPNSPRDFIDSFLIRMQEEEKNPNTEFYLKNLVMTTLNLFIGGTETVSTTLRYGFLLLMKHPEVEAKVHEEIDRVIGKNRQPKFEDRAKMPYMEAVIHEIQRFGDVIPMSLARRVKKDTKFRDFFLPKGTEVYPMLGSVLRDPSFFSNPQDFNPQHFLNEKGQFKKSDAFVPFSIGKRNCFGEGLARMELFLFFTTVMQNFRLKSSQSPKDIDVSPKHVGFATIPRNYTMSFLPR
Description: as §1

Candida krusei ATCC 6258 = assay: In vitro antifungal activity, microbroth dilution (MIC80); format: cell-based; conditions: lowest concentration reducing growth by 80% relative to untreated control; RPMI-1640, 35° C.
Description: (§2) Sabourad Dextrose Agar (Difco), YM Agar or Potato Dextrose Agar was used as a culture medium according to ATCC information, and RPMI-1640 broth (Sigma. Co. w/L-glutamine, wo/NaHCO3)(0.165 M MOPS, pH 7.0), as a dilution medium. […] In the case of yeasts, the turbidity (light absorbance) of the suspension was adjusted to 0.108 at 530 nm, and then the suspension was diluted 1000-fold with sterile RPMI-1640 liquid medium to 1.0103˜5.0103 CFU/ml. The turbidity of fungi was adjusted to 80˜82% and the suspension was diluted 50-fold to 0.4102˜0.5104 CFU/ml. […] 0.1 ml portions of the test solutions were added to the wells of a sterile 96 well plate. Then, 0.1 ml portions of each test strain solutions were added successively to the wells and the plate was incubated at 35° C. for […]. Minimal inhibitory concentration (MIC80) of each compound was determined as the lowest concentration of the test compounds required to reduce growth by 80% relative to a control strain not treated.

A. fumigatus ATCC 16424 = assay: as above; format: cell-based; conditions: lowest concentration reducing growth by 80% relative to untreated control; RPMI-1640, 35° C.
Description: as §2

Candida albicans MYA-573 = assay: as above; format: cell-based; conditions: lowest concentration reducing growth by 80% relative to untreated control; RPMI-1640, 35° C.
Description: as §2

[1] = system: Candida albicans ATCC 10231; assay: as above; format: cell-based; conditions: lowest concentration reducing growth by 80% relative to untreated control; RPMI-1640, 35° C.
Description: as §2

C. neoformans ATCC 36556 = assay: as above; format: cell-based; conditions: lowest concentration reducing growth by 80% relative to untreated control; RPMI-1640, 35° C.
Description: as §2

ICR mice = assay: Toxicity of oral administration; format: in vivo; conditions: oral administration in DMSO, observed over 2 weeks
Description: Specific pathogen-free ICR mice, 2 females and 2 males were used for the each testing. The compound of Example 40 of the present invention was dissolved in DMSO and the solution was orally administered in doses of 62, 125, 250, 500, 1,000 and 2,000 mg of the compound/kg of the body weight (10 ml of the sample volume/kg of the body weight).

CYP 3A4, sequence (P08684 whole entry): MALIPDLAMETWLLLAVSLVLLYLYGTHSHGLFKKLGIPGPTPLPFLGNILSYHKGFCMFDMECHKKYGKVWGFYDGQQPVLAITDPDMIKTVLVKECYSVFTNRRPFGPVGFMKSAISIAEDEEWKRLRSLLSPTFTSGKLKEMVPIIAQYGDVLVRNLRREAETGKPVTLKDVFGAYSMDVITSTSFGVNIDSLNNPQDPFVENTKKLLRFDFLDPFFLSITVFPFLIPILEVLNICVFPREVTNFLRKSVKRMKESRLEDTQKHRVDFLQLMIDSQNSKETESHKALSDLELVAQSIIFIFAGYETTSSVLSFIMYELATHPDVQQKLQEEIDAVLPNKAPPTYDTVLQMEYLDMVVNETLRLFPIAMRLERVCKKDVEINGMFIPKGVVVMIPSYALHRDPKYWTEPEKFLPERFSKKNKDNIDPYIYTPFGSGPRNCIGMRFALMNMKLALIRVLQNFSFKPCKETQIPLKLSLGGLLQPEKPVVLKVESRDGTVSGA
CYP 2D6, sequence (P10635 whole entry): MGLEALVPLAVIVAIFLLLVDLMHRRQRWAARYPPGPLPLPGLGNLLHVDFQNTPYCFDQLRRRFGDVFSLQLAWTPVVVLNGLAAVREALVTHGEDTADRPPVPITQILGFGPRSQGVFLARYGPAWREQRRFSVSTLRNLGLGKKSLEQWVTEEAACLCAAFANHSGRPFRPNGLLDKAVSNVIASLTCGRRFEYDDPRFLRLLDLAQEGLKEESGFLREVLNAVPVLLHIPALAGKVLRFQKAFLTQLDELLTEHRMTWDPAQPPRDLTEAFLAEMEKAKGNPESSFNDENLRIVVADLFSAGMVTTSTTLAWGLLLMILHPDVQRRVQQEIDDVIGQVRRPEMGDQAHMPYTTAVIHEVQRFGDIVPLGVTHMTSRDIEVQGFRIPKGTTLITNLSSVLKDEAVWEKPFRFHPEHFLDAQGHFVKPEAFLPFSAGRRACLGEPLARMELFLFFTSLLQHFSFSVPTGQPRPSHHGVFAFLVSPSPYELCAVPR
CYP 2C9, sequence (P11712 whole entry): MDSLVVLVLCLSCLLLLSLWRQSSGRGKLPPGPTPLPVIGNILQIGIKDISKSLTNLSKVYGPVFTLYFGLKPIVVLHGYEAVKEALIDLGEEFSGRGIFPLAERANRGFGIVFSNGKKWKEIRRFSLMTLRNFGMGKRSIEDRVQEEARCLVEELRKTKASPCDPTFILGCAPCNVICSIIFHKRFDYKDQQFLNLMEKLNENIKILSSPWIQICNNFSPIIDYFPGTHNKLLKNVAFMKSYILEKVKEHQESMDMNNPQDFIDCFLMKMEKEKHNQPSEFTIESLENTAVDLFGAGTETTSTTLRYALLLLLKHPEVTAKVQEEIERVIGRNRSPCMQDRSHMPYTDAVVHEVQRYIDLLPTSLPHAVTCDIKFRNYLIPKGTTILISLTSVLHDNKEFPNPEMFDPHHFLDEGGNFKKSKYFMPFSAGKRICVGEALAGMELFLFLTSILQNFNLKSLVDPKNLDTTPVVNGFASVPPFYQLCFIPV
CYP 2C19, sequence (P33261 whole entry): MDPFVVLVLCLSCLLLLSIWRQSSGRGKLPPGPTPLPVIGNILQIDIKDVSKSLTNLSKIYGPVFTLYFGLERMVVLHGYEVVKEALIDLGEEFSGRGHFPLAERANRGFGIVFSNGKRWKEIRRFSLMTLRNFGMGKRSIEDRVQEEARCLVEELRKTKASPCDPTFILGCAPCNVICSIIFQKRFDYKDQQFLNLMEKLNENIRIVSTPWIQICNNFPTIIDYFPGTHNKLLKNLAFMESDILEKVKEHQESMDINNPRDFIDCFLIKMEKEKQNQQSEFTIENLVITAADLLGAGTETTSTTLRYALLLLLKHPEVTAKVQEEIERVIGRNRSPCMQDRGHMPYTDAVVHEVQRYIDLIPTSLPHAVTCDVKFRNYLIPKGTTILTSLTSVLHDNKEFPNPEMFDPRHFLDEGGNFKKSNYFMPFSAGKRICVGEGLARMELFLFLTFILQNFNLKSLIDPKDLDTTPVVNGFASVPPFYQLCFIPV

CC(N1CCN(c2ccc(OC(F)=Cc3cccc(Cl)c3)cc2)C1=O)C(O)(Cn1cncn1)c1ccc(F)cc1F (mixture of isomers) [Example 111]
IC50 (CYP 3A4): > 100 µM
IC50 (CYP 2D6; microsomes): > 100 µM
IC50 (CYP 2C8; microsomes): > 100 µM
IC50 (CYP 2C19; microsomes): > 100 µM
IC50 (CYP 1A2; microsomes): > 100 µM
IC50 (CYP 2C9; microsomes): > 100 µM
IC50 (CYP 2A6; microsomes): > 100 µM

CC(n1ccn(-c2ccc(OC(F)=C(c3ccc(Cl)cc3)C(F)(F)F)cc2)c1=O)C(O)(Cn1cncn1)c1ccc(F)cc1F (mixture of isomers) [Example 121]
IC50 (CYP 3A4): > 100 µM
IC50 (CYP 2D6; microsomes): > 100 µM
IC50 (CYP 2C8; microsomes): 41.2 µM
IC50 (CYP 2C19; microsomes): > 100 µM
IC50 (CYP 1A2; microsomes): > 100 µM
IC50 (CYP 2C9; microsomes): > 100 µM
IC50 (CYP 2A6; microsomes): > 100 µM

C[C@@H]1[C@H](O)[C@@H](C)/C=C/C=C/C=C/C=C/C=C/C=C/C=C/[C@H](O[C@@H]2O[C@H](C)[C@@H](O)[C@H](N)[C@@H]2O)C[C@@H]2O[C@](O)(C[C@@H](O)C[C@@H](O)[C@H](O)CC[C@@H](O)C[C@@H](O)CC(=O)O[C@H]1C)C[C@H](O)[C@H]2C(=O)O [Amphotericine B, reference compound]
MIC Range (MIC80) Candida krusei ATCC 6258 (Candida krusei ATCC 6258): 1 µg/mL (≈ 1.08 µM)
MIC Range (MIC80) A. fumigatus ATCC 16424 (A. fumigatus ATCC 16424): 0.5~1 μg/ml
MIC Range (MIC80) Candida albicans MYA-573 (Candida albicans MYA-573): 1~2 μg/ml
MIC Range (MIC80) Candida albicans ATCC 10231 [1]: 0.5~1 μg/ml
MIC Range (MIC80) C. neoformans ATCC 36556 (C. neoformans ATCC 36556): 0.25~1 μg/ml

CC(OC(F)=C(c1ccccc1)C(F)(F)F)C(O)(Cn1cncn1)c1ccc(F)cc1F (stereo not drawn) [Example 5]
MIC Range (MIC80) Candida krusei ATCC 6258 (Candida krusei ATCC 6258): >16 µg/mL
MIC Range (MIC80) A. fumigatus ATCC 16424 (A. fumigatus ATCC 16424): >16 µg/mL
MIC Range (MIC80) Candida albicans MYA-573 (Candida albicans MYA-573): >256 µg/mL
MIC Range (MIC80) Candida albicans ATCC 10231 [1]: 2~4 μg/ml
MIC Range (MIC80) C. neoformans ATCC 36556 (C. neoformans ATCC 36556): 4 µg/mL (≈ 8.75 µM)

COc1cccc(C(=C(F)OC(C)C(O)(Cn2cncn2)c2ccc(F)cc2F)C(F)(F)F)c1 (stereo not drawn) [Example 13]
MIC Range (MIC80) Candida krusei ATCC 6258 (Candida krusei ATCC 6258): >64 µg/mL
MIC Range (MIC80) A. fumigatus ATCC 16424 (A. fumigatus ATCC 16424): >64 µg/mL
MIC Range (MIC80) Candida albicans ATCC 10231 [1]: >64 µg/mL
MIC Range (MIC80) C. neoformans ATCC 36556 (C. neoformans ATCC 36556): 16 µg/mL (≈ 32.8 µM)

CC(OC(F)=Cc1ccc(Oc2ccccc2)cc1)C(O)(Cn1cncn1)c1ccc(F)cc1F (stereo not drawn) [Example 15]
MIC Range (MIC80) Candida krusei ATCC 6258 (Candida krusei ATCC 6258): 4 µg/mL (≈ 8.31 µM)
MIC Range (MIC80) A. fumigatus ATCC 16424 (A. fumigatus ATCC 16424): >256 µg/mL
MIC Range (MIC80) Candida albicans MYA-573 (Candida albicans MYA-573): 1 µg/mL (≈ 2.08 µM)
MIC Range (MIC80) Candida albicans ATCC 10231 [1]: 1 µg/mL (≈ 2.08 µM)
MIC Range (MIC80) C. neoformans ATCC 36556 (C. neoformans ATCC 36556): 0.5 µg/mL (≈ 1.04 µM)

COc1ccc(C(=C(F)Oc2ccc(-c3ncn(C(C)C(O)(Cn4cncn4)c4ccc(F)cc4F)n3)cc2)C(F)(F)F)cc1 (stereo not drawn) [Example 32]
IC50 (CYP 3A4): > 100 µM
IC50 (CYP 2D6; read-out: IC50 Bufuralol 1′-hydroxylase CYP 2D6, human hepatic microsomes 0.5 mg/ml, 37° C., 20 min, LC-MS): > 100 µM
IC50 (CYP 2C8; read-out: IC50 Paclitaxel 6 α-hydroxylase CYP 2C8, human hepatic microsomes 0.5 mg/ml, 37° C., 20 min, LC-MS): 19.9 µM
IC50 (CYP 2C19; read-out: IC50 Mephenytoin 4-hydroxylase CYP 2C19, human hepatic microsomes 0.5 mg/ml, 37° C., 20 min, LC-MS): > 100 µM
IC50 (CYP 1A2; read-out: IC50 Phenacetin O-deethylase CYP 1A2, human hepatic microsomes 0.5 mg/ml, 37° C., 20 min, LC-MS): > 100 µM
IC50 (CYP 2C9; read-out: IC50 Diclofenac 4′-hydroxylase CYP 2C9, human hepatic microsomes 0.5 mg/ml, 37° C., 20 min, LC-MS): > 100 µM
IC50 (CYP 2A6; read-out: IC50 Coumarin 7-hydroxylase CYP 2A6, human hepatic microsomes 0.5 mg/ml, 37° C., 20 min, LC-MS): > 100 µM

CC(n1cnc(-c2ccc(OC(F)=Cc3ccc(Cl)cc3)cc2)n1)C(O)(Cn1cncn1)c1ccc(F)cc1F (stereo not drawn) [Example 40]
IC50 (CYP 3A4): > 100 µM
IC50 (CYP 2D6; microsomes): > 100 µM
IC50 (CYP 2C8; microsomes): 30.1 µM
IC50 (CYP 2C19; microsomes): > 100 µM
IC50 (CYP 1A2; microsomes): > 100 µM
IC50 (CYP 2C9; microsomes): > 100 µM
IC50 (CYP 2A6; microsomes): > 100 µM
LD50 (ICR mice): approximately 1,750 mg/kg
fetal dose (ICR mice): 1,000˜2,000 mg/kg

OC(Cn1cncn1)(Cn1cncn1)c1ccc(F)cc1F [Fluconazole, reference compound]
IC50 (CYP 2D6): 44.2 µM
IC50 (CYP 2C8): > 100 µM
MIC Range (MIC80) Candida krusei ATCC 6258 (Candida krusei ATCC 6258): 32~64 μg/ml
MIC Range (MIC80) Candida albicans ATCC 10231 [1]: 2~4 μg/ml
MIC Range (MIC80) C. neoformans ATCC 36556 (C. neoformans ATCC 36556): 16~32 μg/ml
IC50 (CYP 1A2): > 100 µM
IC50 (CYP 2A6): > 100 µM

CC(=O)N1CCN(c2ccc(OCC3COC(Cn4ccnc4)(c4ccc(Cl)cc4Cl)O3)cc2)CC1 (stereo not drawn) [ketoconazole, reference compound]
IC50 (CYP 2A6): > 100 µM
